From patent US12486270B2, “Receptor tyrosine kinase inhibitors for treatment of protein kinase modulation-responsive disease or disorder” (THE UNITED STATES OF AMERICA, as represented by the …, priority 2019, dated 2025)

Assays:
HT-29 cells = assay: HT-29 cell proliferation (3H-thymidine incorporation); assay type: cell-based, human; settings: co-treatment with autophagy inhibitor, 72 hours
Procedure: Cell proliferation was measured by ^3H-Thymidine incorporation. Briefly, 0.5 μCi ^3H-Thymidine (Perkin Elmer, Waltham, MA; NET027WW001MC) was added to cells in 200 μL of culture media in a 96 well plate for 8-18 hours. Plates were frozen to stop cell growth, cells harvested onto glass fiber filters (Perkin Elmer, 1450-421) dried by microwave, wet with FiltronX liquid scintillation fluid (National Diagnostics, Atlanta, GA; LS-201) and incorporated radioactivity counted in a liquid scintillation counter (Perkin Elmer, MicroBeta-1450 or MicroBeta-2450). […] All lines were used for a maximum number of 10-15 passages over ˜4 years. All cell lines tested negative for mycoplasma (yearly) and MTBM (Molecular Testing of Biological Materials; tested once).

LC3B [1] = assay: LC3B autophagy marker by immunoblotting in HT-29 cells; assay type: cell-based, human; settings: for LC3B accumulation in cells treated with 1 μM NVP or NVP-Iso: spautin 5 μM, 3-MA 5 mM, chloroquine 10 μM
Procedure: Western blotting. Protein lysates were separated by SDS-PAGE and then transferred to a nitrocellulose membrane. After blocking, membranes were incubated overnight with antibodies to LC3 (rabbit Monoclonal antibody, Cell Signaling).

LC3B [2] = assay: LC3B accumulation in SW620 cells; assay type: cell-based, human; settings: pre-treatment 4 hours; spautin 5 μM, 3-MA 5 mM
Procedure: Western blotting. Protein lysates were separated by SDS-PAGE and then transferred to a nitrocellulose membrane. After blocking, membranes were incubated overnight with antibodies to LC3 (rabbit Monoclonal antibody, Cell Signaling). After washing with TBS-T (TBS with 0.05 Tween-20), membranes were incubated with the HRP (Horseradish peroxidase)-linked secondary antibody (IgG donkey anti-rabbit IgG (NA934) (GE LifeSciences, Marlborough, MA). Blots were developed using ECL prime (GE LifeSciences, RPN2232) and digitally captured on an LAS4000 (GE LifeSciences). After stripping, the membrane was re-probed with a mouse monoclonal antibody to GAPDH (Santa Cruz) followed by a secondary IgG sheep anti-mouse IgG (NA931). Western blot bands were quantified using Fiji (Schindelin et al., 2012).

EphA2 [3] = target: T1, EphA2 (Homo sapiens (Human), UniProt P29317); assay: Binding affinity to EphA2 by microscale thermophoresis (MST); settings: for Kd: towards EphA2
T1 sequence (P29317 24-976): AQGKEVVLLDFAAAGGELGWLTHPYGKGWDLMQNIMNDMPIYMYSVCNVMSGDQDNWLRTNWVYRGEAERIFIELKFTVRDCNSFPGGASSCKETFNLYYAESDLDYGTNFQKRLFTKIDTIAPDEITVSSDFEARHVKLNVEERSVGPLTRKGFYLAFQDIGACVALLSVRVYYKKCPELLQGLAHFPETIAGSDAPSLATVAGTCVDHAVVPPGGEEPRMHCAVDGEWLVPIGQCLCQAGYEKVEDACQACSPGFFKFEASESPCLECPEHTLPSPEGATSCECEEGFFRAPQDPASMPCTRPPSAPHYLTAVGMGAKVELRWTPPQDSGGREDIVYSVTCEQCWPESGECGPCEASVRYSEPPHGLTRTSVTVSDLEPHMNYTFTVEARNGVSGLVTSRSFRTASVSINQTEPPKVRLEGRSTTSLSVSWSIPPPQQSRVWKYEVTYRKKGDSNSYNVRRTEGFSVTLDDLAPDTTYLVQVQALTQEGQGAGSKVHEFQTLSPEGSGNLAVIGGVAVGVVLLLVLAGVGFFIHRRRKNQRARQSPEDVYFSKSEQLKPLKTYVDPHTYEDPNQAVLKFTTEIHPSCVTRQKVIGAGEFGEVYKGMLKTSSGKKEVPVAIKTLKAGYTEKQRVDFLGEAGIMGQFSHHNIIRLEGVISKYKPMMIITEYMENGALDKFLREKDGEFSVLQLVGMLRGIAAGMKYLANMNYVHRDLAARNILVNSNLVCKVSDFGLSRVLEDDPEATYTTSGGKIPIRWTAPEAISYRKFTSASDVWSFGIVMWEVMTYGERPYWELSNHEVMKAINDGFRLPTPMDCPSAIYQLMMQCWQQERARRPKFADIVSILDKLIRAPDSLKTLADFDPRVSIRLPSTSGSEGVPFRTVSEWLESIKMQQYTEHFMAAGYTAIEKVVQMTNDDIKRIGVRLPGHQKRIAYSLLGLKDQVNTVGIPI
Text: The binding affinities of the compounds to EphA2 were investigated by microscale thermophoresis (MST) (M. Jerabek-Willemsen et al., J. Mol. Struct. 2014, 1077, 101-113).

SW620 cells = assay: Cleaved caspase-3 immunofluorescence microscopy in colorectal cancer cells (SW620); assay type: cell-based, human; settings: 72 hours
Procedure: Cell viability was also measured by detection of cell-associated cleaved caspase-3. Cells were grown on gelatin-coated glass chamber slides, fixed in 4% paraformaldehyde, immune-stained with rabbit monoclonal antibody to cleaved Caspase 3 (1:100 Cell Signaling Technology) followed by Alexa Fluor 488-conjugated anti-rabbit IgG (1:400 Invitrogen) and mounted with Vectastain containing DAPI (Vector Laboratories). The slides were imaged through a Zeiss LSM780 confocal microscope. Image quantification (cleaved Caspase-3^+ nucleiltotal nuclei) was performed by CellProfiler software.

SW620 = assay: Cell cycle analysis by flow cytometry in colorectal cancer cells (SW620); assay type: cell-based, human; settings: 72 hours; compared to control and NVP/NVP-Iso
Procedure: Cell cycle was assessed by flow cytometry. Adherent cells were harvested, washed with PBS and fixed for 30 minutes in cold 70% ethanol at 4° C. Cells were washed twice with PBS, treated with 2.5 μg/mL RNaseA (ThermoFisher, 12091039) for 30 minutes at room temperature, and then stained with 10 μg propidium iodide for 15 minutes prior to analysis performed on FACS Canton (BD Biosciences; San Jose, CA) and cell cycled analyzed (FloJo software).

EphB4 = EphB4 (Homo sapiens (Human), UniProt P54760); assay: Endogenous EphB4 tyrosine phosphorylation by ELISA in HT29 cell lysates; assay type: cell-based
Chain of EphB4 (P54760 16-987): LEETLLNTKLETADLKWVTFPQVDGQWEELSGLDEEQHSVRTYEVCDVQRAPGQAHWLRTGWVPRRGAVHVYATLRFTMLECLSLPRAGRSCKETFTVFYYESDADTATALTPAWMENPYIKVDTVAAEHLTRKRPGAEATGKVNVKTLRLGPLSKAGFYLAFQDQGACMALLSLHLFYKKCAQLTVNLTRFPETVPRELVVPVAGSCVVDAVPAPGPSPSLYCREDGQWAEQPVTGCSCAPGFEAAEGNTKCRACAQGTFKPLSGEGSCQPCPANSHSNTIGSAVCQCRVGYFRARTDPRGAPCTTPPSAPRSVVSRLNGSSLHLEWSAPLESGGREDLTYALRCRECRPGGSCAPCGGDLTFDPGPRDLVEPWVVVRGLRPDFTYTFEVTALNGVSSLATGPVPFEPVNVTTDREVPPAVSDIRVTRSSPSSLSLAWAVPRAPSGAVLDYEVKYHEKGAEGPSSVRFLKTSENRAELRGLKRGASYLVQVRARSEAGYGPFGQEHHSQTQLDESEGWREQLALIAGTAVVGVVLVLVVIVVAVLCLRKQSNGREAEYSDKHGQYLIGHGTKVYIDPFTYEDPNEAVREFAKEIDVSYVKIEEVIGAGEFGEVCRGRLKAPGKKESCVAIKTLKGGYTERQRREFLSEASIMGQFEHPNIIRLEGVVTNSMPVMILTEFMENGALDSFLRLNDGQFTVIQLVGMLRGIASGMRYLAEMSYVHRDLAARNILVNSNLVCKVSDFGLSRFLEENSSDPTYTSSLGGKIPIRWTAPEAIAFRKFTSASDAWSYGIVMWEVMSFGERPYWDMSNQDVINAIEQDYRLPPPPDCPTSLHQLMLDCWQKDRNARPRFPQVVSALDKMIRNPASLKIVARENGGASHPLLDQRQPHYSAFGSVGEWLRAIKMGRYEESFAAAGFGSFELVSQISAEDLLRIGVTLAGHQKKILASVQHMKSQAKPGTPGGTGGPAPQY
Procedure: (§1) ELISA. ELISA plates (ThermoFisher Scientific, Immulon 4HBX, 3855) were coated overnight at 4° C. with capture antibody 75 ng/well in PBS, and blocked with 5% BSA (Sigma-Aldrich, St. Louis, MO) in PBS for two hours at room temperature. Capture antibodies for EphB4 was goat polyclonal antibody (R&D Systems AF3038); for EphA2 was goat polyclonal antibody (R&D Systems AF3035); 10 ug of cell lysate was applied to the ELISA well for two hours at room temperature. The amount of tyrosine phosphorylation was measured with pTyr-HRP antibody (R&D Systems, HAM1676). The ELISA was developed with 3,3′,5,5′-Tetramethylbenzidine (TMB) (ThermoFisher Scientific, 7588927) for 15 minutes and stopped with 1M H2SO4 (Sigma-Aldrich, 258105). Absorbance at 450 nm was measured using POLARstar Optima plate reader (BMG Labtech, Cary, NC). All conditions were tested in duplicate. pEphB2 was measured by ELISA (Ray Biotech, PEL-EphB2-Y) according to the manufacturer's recommendations.

EphB2 = EphB2 (Homo sapiens (Human), UniProt P29323); assay: Endogenous EphB2 tyrosine phosphorylation by ELISA in Colo-205 cell lysates; assay type: cell-based
Chain of EphB2 (P29323 19-1055): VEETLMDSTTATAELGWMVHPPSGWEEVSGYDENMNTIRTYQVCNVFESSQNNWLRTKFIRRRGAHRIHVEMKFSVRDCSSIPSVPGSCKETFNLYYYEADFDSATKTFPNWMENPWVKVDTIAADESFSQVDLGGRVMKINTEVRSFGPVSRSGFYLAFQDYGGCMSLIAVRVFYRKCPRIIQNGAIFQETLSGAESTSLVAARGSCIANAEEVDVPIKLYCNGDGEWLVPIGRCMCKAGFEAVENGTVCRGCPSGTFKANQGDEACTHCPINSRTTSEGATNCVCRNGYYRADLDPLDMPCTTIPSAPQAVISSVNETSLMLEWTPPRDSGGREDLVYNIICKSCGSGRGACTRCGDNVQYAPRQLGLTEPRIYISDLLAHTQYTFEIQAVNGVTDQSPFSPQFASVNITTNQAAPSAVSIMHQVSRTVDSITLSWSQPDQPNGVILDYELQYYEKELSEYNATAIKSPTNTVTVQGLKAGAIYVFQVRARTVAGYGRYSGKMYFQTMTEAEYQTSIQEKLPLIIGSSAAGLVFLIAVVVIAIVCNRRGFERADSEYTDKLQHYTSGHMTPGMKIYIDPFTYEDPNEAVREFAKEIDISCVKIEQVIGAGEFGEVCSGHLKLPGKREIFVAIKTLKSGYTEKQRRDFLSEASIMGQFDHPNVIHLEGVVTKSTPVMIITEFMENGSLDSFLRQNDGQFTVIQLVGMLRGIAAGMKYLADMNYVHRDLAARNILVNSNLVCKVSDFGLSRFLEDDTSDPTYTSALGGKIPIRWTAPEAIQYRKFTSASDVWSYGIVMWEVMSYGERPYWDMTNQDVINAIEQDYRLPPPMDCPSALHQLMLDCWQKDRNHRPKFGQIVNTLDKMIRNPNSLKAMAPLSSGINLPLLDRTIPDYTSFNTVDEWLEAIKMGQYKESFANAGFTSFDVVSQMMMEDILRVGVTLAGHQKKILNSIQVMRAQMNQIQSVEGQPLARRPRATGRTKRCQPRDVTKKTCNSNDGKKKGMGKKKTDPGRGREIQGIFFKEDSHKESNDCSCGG
Procedure: as §1

EphA2 [4] = target: T1, EphA2; assay: Endogenous EphA2 tyrosine phosphorylation by ELISA in RKO cell lysates; assay type: cell-based
Procedure: as §1

[5] = test system: colorectal carcinoma cell lines; assay: Proliferation of 10 colorectal carcinoma cell lines; assay type: cell-based, human; settings: 1 μM, all colorectal carcinoma cell lines
LC3 = LC3 autophagic puncta imaging in HT-29 cells transduced with fluorescent LC3; assay type: cell-based, human; settings: spautin 4-hour pretreatment
Procedure: Autophagy-related cell death was assessed by evaluation of LC3 autophagy-associated protein. The cells were first induced to stably express fluorescent pK (pHluorin-mKate2) LC3 by lentiviral infection. The cells were subsequently grown on glass coverslips (ThermoFisher, 12-545-81) until 50% confluent. Coverslips were washed with PBS −/−, fixed with 4% PEA for 15 minutes at room temperature, washed with TBS, mounted with DAPI-containing mounting media, allowed to harden overnight and sealed. Coverslips were imaged on a confocal Zeiss 780 microscope. Images were analyzed by CellProfiler using automatic thresholding to calculate the number of nuclei (DAPI staining) and the number of puncta. The results are expressed as the percent cells with two or more puncta. […] Monolayer cell confluency overtime was measured by IncuCyte HD (Essen BioSciences) imaging.
Immunostaining and microscopy. […] Maximum intensity projections (Zen Software 2.3 Blue Edition; Carl Zeiss) were used for quantification using CellProfiler software (Kamentsky et al., Bioinformatics 2011, 27:1179-1180) with automatic thresholding. Integrated intensity of CD31 was measured. The percent Ki-67 positive cells was measured by calculating the number of Ki-67 positive cells/total number DAPI^+ nuclei. The area of cleaved Caspase-3 positive area/total area was calculated by CellProfiler with automatic threshold. […]

Cn1cnc(N)c2ncnc1-2 [3-Methyladenine]
anti-proliferative effects of NVP and NVP-Iso in colorectal cancer cells (HT-29 cells): mitigated the anti-proliferative | LC3B accumulation in cells treated with 1 μM NVP or NVP-Iso (LC3B [1]): reduced accumulation of LC3B | LC3B accumulation induced by NVP and NVP-Iso in SW620 cells (LC3B [2]): reduces this LC3B accumulation

Cc1ccc(C(=O)Nc2cccc(C(F)(F)F)c2)cc1Nc1nc(-c2cnccn2)nc2nn(C)cc12 [@2, 4-Methyl-3-((2-methyl-6-(pyrazin-2-yl)-2H-pyrazolo[3,4-d]pyrimidin-4-yl)amino)-N-(3-(trifluoromethyl)-phenyl)benzamide]
fold lower binding affinity towards EphA2 (EphA2 [3]; compared with @1 and @3): 44 fold | Kd (EphA2 [3]): 132 nM

Cc1ccc(C(=O)Nc2cccc(C(F)(F)F)c2)cc1Nc1nc(-c2cncnc2)nc2c1cnn2C [@3, 4-Methyl-3-((1-methyl-6-(pyrimidin-5-yl)-1H-pyrazolo[3,4-d]pyrimidin-4-yl)amino)-N-(3-(trifluoromethyl)phenyl)benzamide]
cleaved caspase-3 detection in treated cells (SW620 cells): only in a minority of cells | induction of autophagosome marker LC3B (immunoblotting) (LC3B [1]; 72-hour incubation): failure | distribution of cells within the cell cycle (SW620): marked reduction of the proportion of cells within the G2M phase | inhibitory activity for p-EphB4 compared to NVP (EphB4; four hours treatment): comparable or only slightly reduced inhibitory activity | inhibitory activity for p-EphB2 compared to NVP (EphB2; four hours treatment): comparable or only slightly reduced inhibitory activity | inhibitory activity for p-EphA2 compared to NVP (EphA2 [4]; four hours treatment): comparable or only slightly reduced inhibitory activity

Cc1ccc(C(=O)Nc2cccc(C(F)(F)F)c2)cc1Nc1nc(-c2cccnc2)nc2ccccc12 [@4, 4-Methyl-3-((2-(pyridin-3-yl)quinazolin-4-yl)amino)-N-(3-(trifluoromethyl)phenyl)benzamide]
Kd (EphA2 [3]): 86 nM

Cc1ccc(C(=O)Nc2cccc(C(F)(F)F)c2)cc1Nc1nc(-c2cccnc2)nc2ncccc12 [@5, 4-Methyl-3-((2-(pyridin-3-yl)pyrido[2,3-d]pyrimidin-4-yl)amino)-N-(3-(trifluoromethyl)phenyl)benzamide]
Kd (EphA2 [3]): 225 nM | reduction of EphB4 phosphorylation (EphB4; at 2 μM): marginal reduction | reduction of EphB2 phosphorylation (EphB2; at 2 μM): marginal reduction | reduction of EphA2 phosphorylation (EphA2 [4]; at 2 μM): marginal reduction

Cc1ccc(C(=O)Nc2cccc(C(F)(F)F)c2)cc1Nc1nc(-c2cccnc2)nc(-c2cccnc2)n1 [@6, 3-((4,6-Di(pyridin-3-yl)-1,3,5-triazin-2-yl)amino)-4-methyl-N-(3-(trifluoromethyl)phenyl)benzamide]
Kd (EphA2 [3]): 24 nM

Cc1cc(C(=O)Nc2cccc(C(F)(F)F)c2)ccc1Nc1nc(-c2cnccn2)nc2nn(C)cc12 [@7]
Kd (EphA2 [3]): ~2880 nM

Cc1cc(C(=O)Nc2cccc(C(F)(F)F)c2)ccc1Nc1nc(N2CCCC2)nc(-n2ccnc2)n1 [@9]
Kd (EphA2 [3]): 34 nM

Cc1cc(C(=O)Nc2cccc(C(F)(F)F)c2)ccc1Nc1nc(N2CCNCC2)nc(-n2ccnc2)n1 [@11]
Kd (EphA2 [3]): 443 nM

Cc1cc(C(=O)Nc2cccc(C(F)(F)F)c2)ccc1Nc1nc(N2CC[C@H](O)C2)nc(-n2ccnc2)n1 [@12]
Kd (EphA2 [3]): 132 nM

Cc1ccc(C(=O)Nc2cccc(Cl)c2)cc1Nc1nc(N2CC[C@H](O)C2)nc(-n2ccnc2)n1 [@13, (S)-N-(3-chlorophenyl)-3-((4-(3-hydroxypyrrolidin-1-yl)-6-(1H-imidazol-1-yl)-1,3,5-triazin-2-yl)amino)-4-methylbenzamide]
Kd (EphA2 [3]): 97 nM

Cc1ccc(C(=O)Nc2cccc(C(F)(F)F)c2)cc1Nc1nc(-c2cccnc2)nc2c1cnn2C [NVP, NVP-BHG712]
reduction of proliferation [5]: > 50%

Fc1ccc(CNc2ncnc3ccc(F)cc23)cc1 [Spautin, spautin-1]
anti-proliferative effects of NVP and NVP-Iso in colorectal cancer cells (HT-29 cells): mitigated the anti-proliferative | LC3B accumulation in cells treated with 1 μM NVP or NVP-Iso (LC3B [1]): reduced accumulation of LC3B | LC3-related puncta/cell increased by NVP and NVP-Iso (LC3): reduces this drug-effect | LC3B accumulation induced by NVP and NVP-Iso in SW620 cells (LC3B [2]): reduces this LC3B accumulation

CCN(CC)CCCC(C)Nc1ccnc2cc(Cl)ccc12 (stereo not shown) [chloroquine, Chloroquine]
LC3B accumulation in cells treated with 1 μM NVP or NVP-Iso (LC3B [1]): enhanced the accumulation of LC3B
